Data: patent publication US8846951B2 (AbbVie Inc., priority 2009, dated 2014)

Tests used:
[1] = biological target: T1, human serotonin 5-HT2c receptor (Homo sapiens, UniProt P28335); test: Human 5-HT2C receptor radioligand binding assay (agonist site, [125I]DOI); settings: 5-HT2c agonist site; transfected CHO cell membranes; 0.2 nM [125I](±)DOI
T1 construct: expressed in transfected cells; host or cells: CHO cells (membrane homogenates)
T1 sequence (P28335 33-458): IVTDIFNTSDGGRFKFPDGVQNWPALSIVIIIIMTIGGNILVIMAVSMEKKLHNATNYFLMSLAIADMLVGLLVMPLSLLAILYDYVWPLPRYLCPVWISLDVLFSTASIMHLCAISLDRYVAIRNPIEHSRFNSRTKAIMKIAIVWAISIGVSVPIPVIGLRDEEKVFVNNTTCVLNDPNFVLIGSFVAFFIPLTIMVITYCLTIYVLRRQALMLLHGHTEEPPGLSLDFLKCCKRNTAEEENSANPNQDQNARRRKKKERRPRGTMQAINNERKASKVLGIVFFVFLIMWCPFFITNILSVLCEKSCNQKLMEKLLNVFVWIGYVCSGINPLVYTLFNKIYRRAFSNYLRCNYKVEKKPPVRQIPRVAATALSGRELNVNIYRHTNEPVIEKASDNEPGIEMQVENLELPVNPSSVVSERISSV
Protocol: (i) Human 5-HT2C Receptor Radioligand Binding Assay
Affinity of compounds for the agonist site of the […], receptor in transfected CHO cells was determined in a radioligand binding assay essentially as described by Bryant, H. U., et al., Life Sciences (1996) 59(15), 1259-1268.

[2] = biological target: T2, h-5-HT6 receptor (Homo sapiens, UniProt P50406); test: Human 5-HT6 receptor radioligand binding assay (HEK293 membranes, [3H]-LSD); settings: HEK293 membranes expressing h-5-HT6 receptor, 1 nM [3H]-LSD; geometrical mean; read-out: Ki (5-HT6 Agonist Site Radioligand Binding)
T2 construct: expressed in transfected cells; host or cells: HEK293 cells (membranes)
Protocol: (v) Human 5-HT6 Receptor Radioligand Binding Assay
Preparation of Membranes by Ultrasonic Treatment and Differential Centrifugation
Cells from stable clonal cell lines expressing the corresponding receptor (5-HT6) were washed with PBS (without Ca^++, Mg^++) and harvested in PBS with 0.02% EDTA. The cells were collected by centrifugation at 500 g for 10 minutes at 4° C., washed with PBS and centrifuged (500 g, 10 minutes at 4° C.). The pellets were stored at −80° C. until use. For membrane preparation, the thawed cell pellet was resuspended in ice-cold sucrose buffer (0.25 M sucrose, 10 mM HEPES (pH 7.4), 1 mM phenylmethylsulfonyl fluoride (PMSF) in DMSO, 5 μg/ml Pepstatin-A, 3 mM EDTA, 0.025% Bacitracin) and homogenized with a Branson Sonifier W-250 (Settings: Timer 4; Output Control 3; Duty Cycle constant; 2 to 3 cycles). Cell disruption was checked with the aid of a microscope. Remaining unbroken cells were pelleted at 1,000 g for 10 minutes at 4° C. The sucrose buffer supernatant was then centrifuged at 60,000 g for 1 hour at 4° C. (Beckman Ultracentrifuge XL 80). The pellet was resuspended in 30 mL of ice-cold Tris buffer (20 mM TRIS (pH 7.4), 5 μg/mL Pepstatin A, 0.1 mM PMSF, 3 mM EDTA) by pipetting through a 10 mL serological pipette and centrifuged for 1 hour at 4° C. at 60,000 g. A final resuspension was performed in a small volume of ice-cold Tris buffer (see above) by pressing through a serological pipette followed by ultrasonic treatment with a Branson Sonifier W-250 (Settings: Timer 1; Output Control 3; Duty Cycle constant; 1 cycle). Protein concentration was determined (BCA-Kit; Pierce) and aliquots stored at −80° C. or in liquid nitrogen for long-term storage.
Receptor Binding Experiments
All receptor binding experiments were carried out in the corresponding assay buffer in a total volume of 200 μL in the presence of various concentrations of test compound (10^−5 M to 10^−9 M, tenfold serial dilution, duplicate determinations). The assays were terminated by filtration on polyethylenimine (PEI 0.1% or 0.3%) presoaked Packard Unifilter Plates (GF/C or GF/B) with a Tomtec MachIII U 96 well-plate harvester. After the plates had been dried for 2 hours at 55° C. in a drying chamber scintillation cocktail (BetaPlate Scint; PerkinElmer) was added. Radioactivity was measured in a Microbeta Trilux two hours after the addition of the scintillation mixture.
5-HT6 Receptor Binding Assay
HEK293 cells stably expressing the h-5-HT6 receptor (NCBI Reference Sequence XM 001435) were cultured in RPMI1640 medium supplemented with 25 mM HEPES, 10% fetal calf serum and 1-2 mM glutamine. The membrane preparation was performed as described above. […] On the day of the assay, the membranes were thawed, diluted in assay buffer (50 mM Tris-HCl, 5 mM CaCl2, 0.1% ascorbic acid, 10 μM pargyline, pH 7.4) to a concentration of 8 μg protein/assay and homogenized by gentle vortexing. […] Non-specific binding was defined with 1 μM methiothepin. The binding reaction was carried out for 3.5 hours at room temperature. During the incubation, the plates were shaken on a plate shaker at 100 rpm and terminated by filtration on Packard Unifilter GF/C (0.1% PEI) plates, followed by 2 wash cycles with ice-cold 50 mM Tris-HCl, 5 mM CaCl2.
Data derived from liquid scintillation counting were analyzed by iterative non-linear regression analysis with the use of the Statistical Analysis System (SAS): a program similar to “LIGAND” as described by Munson and Rodbard (Anal. Biochem. 1980, 107, 220-239). Fitting was performed according to formulae described by Feldman (Anal. Biochem. 1972, 48, 317-338). IC50 and Ki values were expressed as geometrical mean.

[3] = biological target: T3, 5-HT6 receptor (Homo sapiens, UniProt P50406); test: Human 5-HT6 receptor radioligand binding assay (transfected CHO cells, [3H]LSD); settings: transfected CHO cell membranes, 2 nM [3H]LSD
T3 construct: expressed in transfected cells; host or cells: CHO cells (membrane homogenates)
Protocol: (vi) Human 5-HT6 Receptor Radioligand Binding Assay
Affinity of compounds for the agonist site of the 5-HT6 receptor in transfected CHO cells was determined in a radioligand binding assay essentially as described by Monsma, F. J., et al., Mol. Pharmacol. (1993) 43, 320-327. […] Nonspecific binding was determined in the presence of 100 μM serotonin. The amount of binding was determined by radioactivity quantitation with scintillation counter. IC50s were determined from a standard curve of the reference compound serotonin. Ki's as shown in Table 7 were derived from the IC50s in the standard method.

[4] = biological target: T4, 5HT2C receptors (Homo sapiens, UniProt P28335); test: Human 5-HT2C functional assay in CHO-K1 cells (96-well, calcium, FLIPR); type: cell-based; design: expressed in transfected cells; settings: 5-HT2c agonist activity, CHO-K1 cells stably transfected
T4 sequence (P28335 33-458): T1 sequence (P28335 33-458)
Protocol: (iv) Human 5-HT2C Functional Assay in CHO-K1 Cells
Functional activity was determined by testing the effect of the compounds on intracellular calcium levels in CHO-K1 cells stably transfected with the human 5-HT2C receptor. Cells were seeded into 96-well plates at 60,000 cells/well and grown overnight in tissue culture medium (UltraCHO™ (Lonza), containing 1% dFCS, 250 μg/mL Zeocin, 400 μg/mL Geneticin) at 37° C. and 5% CO2. Growth medium was replaced by medium without dFCS for overnight incubation. Cells were loaded with a fluorescent calcium-sensitive dye in the presence of probenicid according to the manufacturer's protocol (FLIPR Ca4 Assay kit, Molecular Devices). Serial compound dilutions (final concentrations 10^−10 to 10^−5 M) were added to the cells and the maximum calcium response was determined using a FLIPR instrument (Molecular Devices). Concentration-response curves were fitted using a four-parameter logistic equation (GraphPad Prism). The concentration at which the compound exerts half its maximal effect is named the ‘effective concentration 50’ or ‘EC50’ and is listed in Table 5.

[5] = biological target: T4, 5HT2C receptors; test: Human 5-HT2C functional assay in 1321N1 cells (intracellular calcium, FLIPR); type: cell-based; design: expressed in transfected cells; host or cells: 1321N1 cells; settings: 5-HT2c agonist activity, maximum calcium response
Summary of the method: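 1321N1 cells stably expressing human 5-HT2C were serum-starved overnight and loaded with Fluo-4 AM and 1% probenecid. Compounds (10^−10 to 10^−5 M) were tested alone or with 10^−9 M serotonin, and peak calcium was read by FLIPR. EC50 from four-parameter logistic fit.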

T3 sequence (P50406 whole entry): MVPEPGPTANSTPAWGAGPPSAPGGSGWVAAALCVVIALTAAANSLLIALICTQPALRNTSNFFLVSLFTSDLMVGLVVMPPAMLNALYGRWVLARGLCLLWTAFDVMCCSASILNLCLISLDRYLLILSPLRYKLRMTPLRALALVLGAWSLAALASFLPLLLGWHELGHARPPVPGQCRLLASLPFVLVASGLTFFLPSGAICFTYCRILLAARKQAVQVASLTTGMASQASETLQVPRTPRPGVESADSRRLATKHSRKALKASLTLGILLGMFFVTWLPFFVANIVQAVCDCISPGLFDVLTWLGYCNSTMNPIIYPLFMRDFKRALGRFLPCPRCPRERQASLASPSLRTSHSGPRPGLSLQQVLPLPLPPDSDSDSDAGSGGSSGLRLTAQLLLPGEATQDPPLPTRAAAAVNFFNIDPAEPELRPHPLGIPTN
T2 sequence (P50406 whole entry): as above

Row | SMILES | Ki [1] [nM] | Ki [2] [nM] | Ki [3] [nM] | EC50 [4] [nM] | EC50 [5] [nM]
1 | O=S(=O)(c1ccc(F)c(Cl)c1)N1Cc2ccccc2[C@@H]2CN(Cc3ccccc3)C[C@H]2C1 (relative stereo) [Example 14, Trans-2-benzyl-5-(3-chloro-4-fluorophenylsulfonyl)-1,2,3,3a,4,5,6,10b-octahydrobenzo[c]pyrrolo[3,4-e]azepine] | 590 |  | 250 |  | > 10000
2 | O=S(=O)(c1cccc(C(F)(F)F)c1)N1Cc2ccccc2[C@@H]2CN(Cc3ccccc3)C[C@H]2C1 (relative stereo) [Example 16, Trans-2-benzyl-5-(3-(trifluoromethyl)phenylsulfonyl)-1,2,3,3a,4,5,6,10b-octahydrobenzo[c]pyrrolo[3,4-e]azepine] | 560 |  | 140 |  | > 10000
3 | O=C1NCc2ccccc2[C@@H]2CN(S(=O)(=O)c3cccc(Cl)c3Cl)C[C@@H]12 (relative stereo) [Example 39, Trans-2-(2,3-dichlorophenylsulfonyl)-1,2,3,3a,5,6-hexahydrobenzo[c]pyrrolo[3,4-e]azepin-4(10bH)-one] |  | 207 | 275 |  | 

Other lines, results leading:

Row | Ki [1] [nM] | Ki [2] [nM] | Ki [3] [nM] | EC50 [4] [nM] | EC50 [5] [nM] | SMILES
4 | 93 | 40.3 | 28 | > 1000 |  | O=S(=O)(c1cccc(F)c1)N1Cc2ccccc2[C@@H]2CN(Cc3ccccc3)C[C@H]2C1 (relative stereo) [Example 8, Trans-2-benzyl-5-(3-fluorophenylsulfonyl)-1,2,3,3a,4,5,6,10b-octahydrobenzo[c]pyrrolo[3,4-e]azepine]
5 | 320 |  | 57 |  | > 10000 | O=S(=O)(c1cccc(Br)c1)N1Cc2ccccc2[C@@H]2CN(Cc3ccccc3)C[C@H]2C1 (relative stereo) [Example 12, Trans-2-benzyl-5-(3-bromophenylsulfonyl)-1,2,3,3a,4,5,6,10b-octahydrobenzo[c]pyrrolo[3,4-e]azepine]
6 | 260 |  | 43 |  | > 10000 | O=S(=O)(c1cccc(Cl)c1)N1Cc2ccccc2[C@@H]2CN(Cc3ccccc3)C[C@H]2C1 (relative stereo) [Example 20, Trans-2-benzyl-5-(3-chlorophenylsulfonyl)-1,2,3,3a,4,5,6,10b-octahydrobenzo[c]pyrrolo[3,4-e]azepine]
